Data: US10561657B2, “Pyrrolopyrimidine compound” (CENTAURUS BIOPHARMA CO., LTD., priority 2014, dated 2020)
Where two headings read alike, the source gives them in different places. Blank lines part the entries; values can stand above or below the compound they belong to.

Key:
[1] = target: JAK2 kinase (wild type, JAK2^WT) (Homo sapiens (Human), UniProt O60674); experiment: HTRF assay for enzymatic activity (IC50), JAK2 wild type; type: biochemical; details: ATP at Km, 120 min, 23 °C
Description: 1. Assay for Enzymatic Activity (IC50) of Compounds
A testing platform for kinase activity of JAK2 (wild type and V617F mutant type) was established based on Homogeneous Time-Resolved Fluorescence (HTRF) assay, and the activities of the compounds were tested using the platform. The compounds were subjected to three-fold gradient dilutions with 100% DMSO with a starting concentration of 1 mM (11 dilutions in total). 4 μL of each dilution was added to 96 μL of reaction buffer (50 mM HEPES, pH 7.4, 10 mM MgCl2, 1 mM EGTA, 0.01% Tween-20, 0.005% BAS, 2 mM DTT) and mixed homogeneously. […] The mixture was mixed homogeneously by centrifugation. […] The plate was incubated in the incubator for 1 hr, and then the fluorescence values were read on Envision (available from PerkinElmer). […] The enzymatic activity was representd by a ratio of the two readout at the two emission wavelengths. The enzymatic activity for each compound was tested at 11 concentrations, and IC50 values of the compounds were obtained by calculating the data using GraFit6.0 software (Erithacus Software). 2. Assay for cell proliferation activity (IC50) of compounds

[2] = Pharmacokinetic assay in adult female SD rats (30 mg/kg oral); type: in vivo
[3] = Pharmacokinetic assay in adult beagles (IV 5 mg/kg, PO 10 mg/kg); type: in vivo; details: for half-life / AUC(0-inf) / Cmax / Tmax: beagle, dog, plasma; for AUC(0-inf): read-out: AUCINF—obs
From the text: Pharmacokinetic Assay in Adult Beagles

[4] = both sexes, IV 5 mg/kg, average
[5] = both sexes, PO 10 mg/kg, average

Chain of JAK2 kinase (wild type, JAK2^WT) (O60674 whole entry): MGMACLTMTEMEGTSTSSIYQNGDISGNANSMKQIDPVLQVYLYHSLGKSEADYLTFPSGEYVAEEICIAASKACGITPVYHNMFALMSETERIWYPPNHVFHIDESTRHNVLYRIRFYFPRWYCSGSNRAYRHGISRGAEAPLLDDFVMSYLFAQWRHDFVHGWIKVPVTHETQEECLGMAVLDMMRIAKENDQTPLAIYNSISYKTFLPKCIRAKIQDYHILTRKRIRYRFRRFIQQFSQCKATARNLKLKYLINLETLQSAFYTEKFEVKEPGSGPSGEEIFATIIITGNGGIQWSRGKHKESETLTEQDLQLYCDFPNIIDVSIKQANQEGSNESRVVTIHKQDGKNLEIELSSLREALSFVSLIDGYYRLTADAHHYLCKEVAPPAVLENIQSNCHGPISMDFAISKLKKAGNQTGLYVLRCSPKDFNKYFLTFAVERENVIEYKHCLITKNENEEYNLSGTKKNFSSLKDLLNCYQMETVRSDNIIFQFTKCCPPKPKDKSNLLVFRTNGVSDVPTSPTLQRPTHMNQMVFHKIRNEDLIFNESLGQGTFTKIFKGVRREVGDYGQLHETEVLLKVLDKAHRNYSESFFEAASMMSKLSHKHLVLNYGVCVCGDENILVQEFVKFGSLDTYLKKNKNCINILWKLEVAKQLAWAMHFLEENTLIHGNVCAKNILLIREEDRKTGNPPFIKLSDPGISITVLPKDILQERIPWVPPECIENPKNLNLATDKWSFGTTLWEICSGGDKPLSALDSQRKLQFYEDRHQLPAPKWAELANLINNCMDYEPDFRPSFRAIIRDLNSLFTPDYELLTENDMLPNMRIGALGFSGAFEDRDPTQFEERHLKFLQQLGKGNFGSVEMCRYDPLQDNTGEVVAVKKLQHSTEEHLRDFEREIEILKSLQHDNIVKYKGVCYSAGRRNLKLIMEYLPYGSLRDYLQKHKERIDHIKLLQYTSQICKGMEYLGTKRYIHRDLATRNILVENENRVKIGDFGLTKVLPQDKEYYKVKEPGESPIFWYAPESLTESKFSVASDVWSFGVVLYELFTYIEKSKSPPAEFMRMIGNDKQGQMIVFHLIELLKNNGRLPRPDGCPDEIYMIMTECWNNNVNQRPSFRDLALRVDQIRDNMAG

Compound: CCOC(=O)CCC(=O)Nc1nn(C(CC#N)C2CCCC2)cc1-c1ncnc2[nH]ccc12 (stereo not shown) [Example 15, Ethyl 4-[1-(2-cyano-1-cyclopentylethyl)-4-(7H-pyrrolo[2,3-d]pyrimidin-4-yl)-1H-pyrazol-3-ylamino]-4-oxobutanoate]
IC50 [1]: < 20 nM

Compound: N#CCC(C1CCCC1)n1cc(-c2ncnc3[nH]ccc23)c(N2C(=O)CCC2=O)n1 (stereo not shown) [Example 16, 3-cyclopentyl-3-[3-(succinimid-1-yl)-4-(7H-pyrrolo[2,3-d]pyrimidin-4-yl)-1H-pyrazol-1-yl]propionitrile]
IC50 [1]: < 100 nM

Compound: N#CCC(C1CCCC1)n1cc(-c2ncnc3[nH]ccc23)c(NC2CC(C(=O)N3CCOCC3)C2)n1 (stereo not shown) [Example 17, 3-[3-(3-morpholin-4-carbonyl)cyclobutylamino-4-(7H-pyrrolo[2,3-d]pyrimidin-4-yl)-1H-pyrazolyl]-3-cyclopentylpropanenitrile]
IC50 [1]: < 20 nM

Compound: N#CCC(C1CCCC1)n1cc(-c2ncnc3[nH]cc(Br)c23)c(Br)n1 (stereo not shown) [Example 18, 3-[3-bromo-4-(5-bromo-7H-pyrrolo[2,3-d]pyrimidin-4-yl)-1H-pyrazol-1-yl]-3-cyclopentylpropanenitrile]
IC50 [1]: < 1000 nM

Compound: N#CCC(C1CCCC1)n1cc(-c2ncnc3[nH]ccc23)c(Br)n1 (stereo not shown) [Example 19, 3-[3-bromo-4-(7H-pyrrolo[2,3-d]pyrimidin-4-yl)-1H-pyrazol-1-yl]-3-cyclopentylpropanenitrile]
IC50 [1]: < 20 nM

Compound: N#CCC(C1CCCC1)n1cc(-c2ncnc3[nH]ccc23)c(C(N)=O)n1 (stereo not shown) [Example 24, 1-(2-cyano-1-cyclopentylethyl)-4-(7H-pyrrolo[2,3-d]pyrimidin-4-yl)-1H-pyrazol-3-formamide]
IC50 [1]: < 20 nM

Compound: CNC(=O)c1nn(C(CC#N)C2CCCC2)cc1-c1ncnc2[nH]ccc12 (stereo not shown) [Example 25, 1-(2-cyano-1-cyclopentylethyl)-N-methyl-4-(7H-pyrrolo[2,3-d]pyrimidin-4-yl)-1H-pyrazol-3-formamide]
IC50 [1]: < 20 nM

Compound: N#CCC(C1CCCC1)n1cc(-c2ncnc3[nH]ccc23)c(C(=O)NCCN)n1 (stereo not shown) [Example 26, N-(2-aminoethyl)-1-(2-cyano-1-cyclopentylethyl)-4-(7H-pyrrolo[2,3-d]pyrimidin-4-yl)-1H-pyrazol-3-formamide]
IC50 [1]: < 20 nM

Compound: N#CCC(C1CCCC1)n1cc(-c2ncnc3[nH]ccc23)c(C#N)n1 (stereo not shown) [Example 27, 1-(2-cyano-1-cyclopentylethyl)-4-(7H-pyrrolo[2,3-d]pyrimidin-4-yl)-1H-pyrazol-3-carbonitrile]
IC50 [1]: < 20 nM

Compound: N#CCC(C1CCCC1)n1cc(-c2ncnc3[nH]ccc23)c(CO)n1 (stereo not shown) [Example 28, 3-cyclopentyl-3-[3-(hydroxymethyl)-4-(7H-pyrrolo[2,3-d]pyrimidin-4-yl)-1H-pyrazol-1-yl]propionitrile]
IC50 [1]: < 20 nM

Results, then the compound that gave them:

IC50 [1]: < 20 nM
Compound: N#CCC(C1CCCC1)n1ncc(-c2ncnc3[nH]ccc23)c1N (stereo not shown) [Example 3, 3-[5-amino-4-(7H-pyrrolo[2,3-d]pyrimidin-4-yl)-1H-pyrazol-1-yl]-3-cyclopentylpropanenitrile]

IC50 [1]: < 20 nM
AUCINFobs [2]: 6316 ng·h/mL
Cmax [2]: 2204 ng/mL
Tmax [2]: 0.58 h
t1/2 [2]: 2.20 h
Cl_obs ([3]; IV 5 mg/kg, average): 8.82 mL/min/kg
Vss_obs ([3]; IV 5 mg/kg, average): 1.974 L/kg
Cl_obs ([3]; IV 5 mg/kg, female): 7.37 mL/min/kg
Vss_obs ([3]; IV 5 mg/kg, female): 1.86 L/kg
Cl_obs ([3]; IV 5 mg/kg, male): 10.3 mL/min/kg
Vss_obs ([3]; IV 5 mg/kg, male): 2.089 L/kg
F ([3]; PO 10 mg/kg, average): 114%
F ([3]; PO 10 mg/kg, female): 119%
F ([3]; PO 10 mg/kg, male): 107%
half-life ([3]; IV 5 mg/kg, female): 3.65 h
AUC(0-inf) ([3]; IV 5 mg/kg, female): 11500 ng·h/mL
half-life ([3]; IV 5 mg/kg, male): 3.64 h
AUC(0-inf) ([3]; IV 5 mg/kg, male): 8190 ng·h/mL
Cmax ([3]; PO 10 mg/kg, female): 3980 ng/mL
Tmax ([3]; PO 10 mg/kg, female): 1.13 h
half-life ([3]; PO 10 mg/kg, female): 3.03 h
AUC(0-inf) ([3]; PO 10 mg/kg, female): 27400 ng·h/mL
Cmax ([3]; PO 10 mg/kg, male): 3830 ng/mL
Tmax ([3]; PO 10 mg/kg, male): 0.25 h
half-life ([3]; PO 10 mg/kg, male): 3.04 h
AUC(0-inf) ([3]; PO 10 mg/kg, male): 17500 ng·h/mL
half-life [3, 4]: 3.64 h
AUC(0-inf) [3, 4]: 9850 ng·h/mL
Cmax [3, 5]: 3900 ng/mL
Tmax [3, 5]: 0.69 h
half-life [3, 5]: 3.03 h
AUC(0-inf) [3, 5]: 22500 ng·h/mL
Compound: N#CC[C@H](C1CCCC1)n1cc(-c2ncnc3[nH]ccc23)c(N)n1 [Example 5, (3R)-3-[3-amino-4-(7H-pyrrolo[2,3-d]pyrimidin-4-yl)-1H-pyrazol-1-yl]-3-cyclopentylpropanenitrile]

IC50 [1]: < 20 nM
Compound: N#CC[C@@H](C1CCCC1)n1cc(-c2ncnc3[nH]ccc23)c(N)n1 [Example 6, (3S)-3-[3-amino-4-(7H-pyrrolo[2,3-d]pyrimidin-4-yl)-1H-pyrazol-1-yl]-3-cyclopentylpropanenitrile]

IC50 [1]: < 20 nM
Compound: CC(=O)Nc1nn(C(CC#N)C2CCCC2)cc1-c1ncnc2[nH]ccc12 (stereo not shown) [Example 9, N-[1-(2-cyano-1-cyclopentylethyl)-4-(7H-pyrrolo[2,3-d]pyrimidin-4-yl)-1H-pyrazol-3-yl]acetamide]

IC50 [1]: < 20 nM
Compound: N#CCC(C1CCCC1)n1cc(-c2ncnc3[nH]ccc23)c(NCCN2CCOCC2)n1 (stereo not shown) [Example 11, 3-cyclopentyl-3-[3-(2-morpholinylethylamino)-4-(7H-pyrrolo[2,3-d]pyrimidin-4-yl)-1H-pyrazol-1-yl]propionitrile]

IC50 [1]: < 20 nM
Compound: N#CCC(C1CCCC1)n1cc(-c2ncnc3[nH]ccc23)c(NC(=O)CN2CCOCC2)n1 (stereo not shown) [Example 12, N-[1-(2-cyano-1-cyclopentylethyl)-4-(7H-pyrrolo[2,3-d]pyrimidin-4-yl)-1H-pyrazol-3-yl]-2-morpholinylacetamide]

IC50 [1]: < 20 nM
Compound: N#CCC(C1CCCC1)n1cc(-c2ncnc3[nH]ccc23)c(NCCC(=O)N2CCOCC2)n1 (stereo not shown) [Example 13, 3-cyclopentyl-3-[3-(3-morpholinyl-3-oxopropylamino)-4-(7H-pyrrolo[2,3-d]pyrimidin-4-yl)-1H-pyrazol-1-yl]propionitrile]

IC50 [1]: < 20 nM
Compound: N#CCC(C1CCCC1)n1cc(-c2ncnc3[nH]ccc23)c(NCC(=O)N2CCOCC2)n1 (stereo not shown) [Example 14, 3-cyclopentyl-3-[3-(2-morpholinyl-2-oxoethylamino)-4-(7H-pyrrolo[2,3-d]pyrimidin-4-yl)-1H-pyrazol-1-yl]propionitrile]
